Tests used:
[1] = system: Monocotyledonous and dicotyledonous test plants; test: Herbicidal action before emergence of the plants (pre-emergence action), greenhouse pot test, 9-level rating after 4 weeks; type: in vivo; set-up: key: 9-level scale: 1 = complete damage, 9 = no effect; details: 250 g/ha, rated after 4 weeks, 9-level scale
Method: Herbicidal Action Before Emergence of the Plants (Pre-Emergence Action)
Monocotyledonous and dicotyledonous test plants are sown in standard soil in pots. Immediately after sowing, the test substances are sprayed on at an optimum dosage (500 l of water/ha) as an aqueous suspension (prepared from a wettable powder (example F3, b) according to WO 97/34485) or emulsion (prepared from an emulsion concentrate (example F1, c) according to WO 97/34485). The test plants are then grown under optimum conditions in a greenhouse.
After a test period of 4 weeks, the test is evaluated using a 9-level scale of ratings (1=complete damage, 9=no effect). Ratings of 1 to 4 (in particular 1 to 3) mean good to very good herbicidal action.

[2] = system: Monocotyledonous and dicotyledonous test plants; test: Post-emergence herbicidal action, greenhouse pot test, sprayed at the 2- to 3-leaf stage, 9-level rating after 2 to 3 weeks; type: in vivo; details: 250 g/ha, rated after 2 to 3 weeks, 9-level scale
Method: Post-Emergence Herbicidal Action
Monocotyledonous and dicotyledonous test plants are grown in standard soil in pots. At the 2- to 3-leaf stage of the test plants, the test substances are sprayed at optimum dosage (500 l of water/ha) as an aqueous suspension (prepared from a wettable powder (example F3, b) according to WO 97/34485) or emulsion (prepared from an emulsion concentrate (example F1, c) according to WO 97/34485). The test plants are then grown further under optimum conditions in a greenhouse.
After a test period of 2 to 3 weeks, the test is evaluated using a 9-level scale of rating (1=complete damage, 9=no effect). Ratings of 1 to 4 (in particular 1 to 3) mean good to very good herbicidal action.

| SMILES | Pre-emergence action rating, Abutilon [1] | Pre-emergence action rating, Amaranthus [1] | Pre-emergence action rating, Chenop. [1] | Pre-emergence action rating, Digitaria [1] | Pre-emergence action rating, Echino. [1] | Pre-emergence action rating, Panicum [1] | Post-emergence action rating, Abutilon [2] | Post-emergence action rating, Amaranth [2] | Post-emergence action rating, Chenop. [2] | Post-emergence action rating, Digitaria [2] | Post-emergence action rating, Echino. [2] | Post-emergence action rating, Ipopur. [2] | Post-emergence action rating, Panicum [2] | Post-emergence action rating, Xanth. [2] |
| --- | --- | --- | --- | --- | --- | --- | --- | --- | --- | --- | --- | --- | --- | --- |
| C#CCCOCc1nc(C(F)(F)F)ccc1C(=O)C1=C(O)C2CCC(C2)C1=O (centres unmarked) [A836-B52] | 5 | 2 | 3 | 2 | 1 | 1 | 2 | 2 | 1 | 2 | 2 | 3 | 2 | 3 |
| O=C(C1=C(O)C2CCC(C2)C1=O)c1ccc(C(F)(F)F)nc1COCC(F)(F)F (centres unmarked) [A834-B52] | 1 | 2 | 1 | 1 | 1 | 1 | 2 | 1 | 1 | 1 | 2 | 2 | 1 | 2 |
| O=C(C1=C(O)C2CCC(C2)C1=O)c1ccc(C(F)(F)F)nc1COCc1ccccc1 (centres unmarked) [A67-B52] | 3 | 2 | 1 | 2 | 2 | 1 | 2 | 2 | 1 | 2 | 2 | 3 | 2 | 2 |
| O=C(C1=C(O)C2CCC(C2)C1=O)c1ccc(C(F)(F)F)nc1COC1CCCCO1 (centres unmarked) [A28-B52] | 2 | 3 |  | 2 | 2 | 1 | 2 | 1 | 1 | 2 | 2 | 4 | 1 | 3 |
| O=C(C1=C(O)C2CCC(C2)C1=O)c1ccc(C(F)(F)F)nc1COCCCl (centres unmarked) [A850-B52] | 1 | 2 | 1 | 2 | 1 | 1 | 2 | 2 | 1 | 2 | 2 | 2 | 2 | 2 |
| O=C(C1=C(O)C2CCC(C2)C1=O)c1ccc(C(F)(F)F)nc1COC1COC1 (centres unmarked) [A24-B52] | 1 | 1 | 1 | 1 | 1 | 1 | 2 | 2 | 1 | 2 | 2 | 2 | 2 | 2 |
| O=C(C1=C(O)C2CCC(C2)C1=O)c1ccc(C(F)(F)F)nc1COC1COCOC1 (centres unmarked) [A851-B52] | 1 | 1 | 1 | 1 | 1 | 1 | 3 | 2 | 1 | 3 | 4 | 3 | 3 | 3 |
| O=C(C1=C(O)C2CCC(C2)C1=O)c1ccc(C(F)(F)F)nc1COCCOCC(F)(F)F (centres unmarked) [A845-B52] | 1 | 1 | 1 | 1 | 1 | 1 | 2 | 2 | 1 | 2 | 2 | 2 | 2 | 2 |
| COCC(Br)COCc1nc(C(F)(F)F)ccc1C(=O)C1=C(O)C2CCC(C2)C1=O (centres unmarked) [A853-B52] | 1 | 1 | 2 | 1 | 2 | 1 |  |  |  |  |  |  |  |  |
| Cn1ncc(C(=O)c2ccc(C(F)(F)F)nc2COCC(F)(F)F)c1O [A834-C5] | 1 | 2 |  | 3 | 1 | 1 |  |  |  |  |  |  |  |  |

From patent US7378375B1, “Substituted pyridine herbicides” (Syngenta Crop Protection, Inc., priority 2000, dated 2008)
